# From patent publication US20240197728A1, “METHODS AND PHARMACEUTICAL COMPOSITIONS FOR TREATING REFRACTORY EPILEPSY” (INSERM (INSTITUT NATIONAL DE LA SANTÉ ET DE LA RECHERCHE …, priority 2021, published 2024)
# What was measured:
# KCC2 = test: Immunoprecipitation/immunoblot of KCC2 phosphorylation and expression in hippocampo-cortical slices; assay type: cell-based, rat; conditions: for change of total KCC2 expression: slices; for change of total KCC2 expression / change of KCC2 phosphorylation at S940 / change of KCC2 phosphorylation at T906 / change of KCC2 phosphorylation at T1007: vs DMSO
# Description: For all experiments on hippocampal cultures, neurons were pre-incubated for 2 hours with either DMSO, PCPZ or CLP257 in a CO2 incubator set at 37° C. Drugs were added directly to the culture medium. For electrophysiology experiments, neurons were also recorded in presence of these drugs in the bath. For biochemistry experiments on rat hippocampo-cortical slices, slices were incubated with either DMSO (vehicle), CLP257, PCPZ, WNK463 or sodium orthovanadate for 2 hours in interface chambers set at 37° C. For human tissue experiments, slices were pre-incubated with either DMSO, CLP257 or PCPZ for 2 hours in interface chambers set at 37° C. and then also recorded in presence of these compounds.
# 8-weeks old Sprague Dawley male rats were anesthetized by intraperitoneal ketamine/xylazine injection (120/10 mg/kg) and perfused transcardially with ice-cold (0-4° C.), oxygenated solution (O2/CO2 95/5%), containing (in mM): N-methyl-d-glucamine 93, KCl 2.5, NaH2PO4 1.2, NaHCO330, HEPES 20, D-glucose 20, ascorbic acid 5, sodium pyruvate 3, MgSO4 10 and CaCl2) 0.5 (300-310 mOsm, pH7.4). Brains were removed and transverse hippocampo-cortical slices (400 m thick) were prepared in the same solution using a vibratome (HM650V, Microm). Slices were then incubated for 2-hours with DMSO, the KCC2 enhancers (CLP257, PCPZ, WNK43) or sodium orthovanadate in an interface chamber containing artificial cerebrospinal fluid (ACSF) composed of (in mM): D-glucose 10, KCl 3.5, NaHOC3 26, NaH2PO4 1.25, NaCl 126, CaCl2) 1.6 and MgCl2 1.2 (290 mOsm), equilibrated with 5% CO2 in 95% 02. After the treatments, slices were washed with cold PBS, instantaneously frozen with liquid nitrogen and stored at −80° C.
# Slices were mechanically lysed on ice, using a 2 mL Dounce, in a buffer containing (in mM): Tris/HCl, pH 7.5 50, EGTA 1, EDTA 1, sodium orthovanadate 1, sodium-B-glycerophosphate 10, sodium fluoride 50, sodium pyrophosphate 5, sucrose 270, benzamidine 1, phenylmethylsulfonyl fluoride 2, Triton […], (v/v) 2-mercaptoethanol 0.1% and protease inhibitors (Roche). After complete homogenization, samples were centrifuged (16,000×g at 4° C. for 10 min) and the supernatant was collected. Protein quantification was done using Pierce BCA Protein Assay kit (Thermo Scientific) with BSA as standard.
# The following phosphorylation site-specific antibodies: anti-KCC3A phospho Thr1048 (0.35 mg/ml, sheep, [S0961C] 1st bleed, Dundee), anti-KCC3A phospho Thr 991 (0.26 mg/ml, sheep, [S959C] 1st bleed, Dundee) were first incubated for 30 min at 4° C. with the corresponding non-phosphorylated peptide (10 mg/ml, Dundee).
# Phospho-antibodies or anti-KCC2 antibodies (07-432; Millipore) were then coupled with protein-G-Sepharose (4 Fast Flow; Sigma-Aldrich) at a ratio of […] of antibody per 100 μl of beads, for 2 h at 4° C. without agitation. 1.5 mg of clarified cell lysate was incubated with the antibody-coupled bead suspension, overnight at 4° C. under gentle agitation. The supernatant was collected after centrifugation and beads were washed twice with NaCl solution (0.25M NaCl in 1×PBS) and twice with PBS alone. Bound proteins were eluted with 2×LDS sample buffer (Invitrogen) containing 0.5% (v/v) 2-mercaptoethanol and denaturated at 75° C. for 20 min (IP with phospho-antibodies) or 37° C. for 1 h (IP with anti-KCC2 antibodies) before centrifugation (13,000×g at 4° C. for 15-20 min).
# Samples were subjected to electrophoresis on polyacrylamide gradient gels (4-12% bis-tris gels) and transferred to nitrocellulose membranes. Membranes were rinsed with TBS-tween solution (TBST; Invitrogen) and blocked with 5% (w/v) skim milk. The membranes were then immunoblotted in 5% (w/v) skim milk in TBST with a primary antibody against KCC2 (rabbit, 07-432; Millipore; 1:1000), or phosphotyrosine (mouse, clone 4G10, Millipore, 1:1000), and a mouse primary antibody against neuron-specific beta-III tubulin overnight at 4° C. (clone 2G10; T8578; Sigma-Aldrich; 1:1000). […]
# recombinant human OSR1 = target: T1, recombinant human OSR1 (Homo sapiens, UniProt O95747); test: Radiometric kinase profiling assay; assay type: biochemical; conditions: 70 μM ATP
# T1 construct: purchased Eurofins Discovery (KinaseProfiler, contractor)
# T1 sequence (O95747 whole entry): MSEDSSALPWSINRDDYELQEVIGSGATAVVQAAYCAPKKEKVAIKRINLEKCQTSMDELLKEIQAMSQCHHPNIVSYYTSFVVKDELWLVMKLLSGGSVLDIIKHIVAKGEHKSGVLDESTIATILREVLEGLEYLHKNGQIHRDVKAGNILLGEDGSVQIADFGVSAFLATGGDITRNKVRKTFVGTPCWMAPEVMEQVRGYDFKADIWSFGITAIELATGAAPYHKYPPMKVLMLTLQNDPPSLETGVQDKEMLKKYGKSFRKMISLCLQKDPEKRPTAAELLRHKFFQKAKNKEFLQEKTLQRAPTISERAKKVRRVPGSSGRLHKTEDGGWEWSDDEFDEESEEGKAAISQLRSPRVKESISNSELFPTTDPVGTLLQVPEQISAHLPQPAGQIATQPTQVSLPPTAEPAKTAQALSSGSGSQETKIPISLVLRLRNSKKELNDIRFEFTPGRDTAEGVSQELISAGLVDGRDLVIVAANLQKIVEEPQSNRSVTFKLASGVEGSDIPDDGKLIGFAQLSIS
# Description: (§1) Kinase activity profiles (data not shown) were performed using radiometric assays to measure kinase catalytic activity for PCPZ concentrations ranging 0.1-500 μM in DMSO or CLP257 concentrations ranging 0.1-1000 μM in DMSO, in the presence of 70 μM ATP. Equimolar DMSO concentrations were used as control. Additional information on the kinase profiler assay can be obtained from the contractor's website. (https://www.eurofinsdiscoveryservices.com/cms/cms-content/services/in-vitro-assays/kinases/kinase-profiler).
# [1] = target: T2, recombinant human STK39 (SPAK) (Homo sapiens, UniProt Q9UEW8); test: Radiometric kinase profiling assay; assay type: biochemical; conditions: 70 μM ATP
# T2 construct: purchased Eurofins Discovery (KinaseProfiler, contractor)
# Description: as §1
# recombinant human WNK3 = target: T3, recombinant human WNK3 (Homo sapiens, UniProt Q9BYP7); test: Radiometric kinase profiling assay; assay type: biochemical; conditions: 70 μM ATP
# T3 construct: purchased Eurofins Discovery (KinaseProfiler, contractor)
# T3 sequence (Q9BYP7 whole entry): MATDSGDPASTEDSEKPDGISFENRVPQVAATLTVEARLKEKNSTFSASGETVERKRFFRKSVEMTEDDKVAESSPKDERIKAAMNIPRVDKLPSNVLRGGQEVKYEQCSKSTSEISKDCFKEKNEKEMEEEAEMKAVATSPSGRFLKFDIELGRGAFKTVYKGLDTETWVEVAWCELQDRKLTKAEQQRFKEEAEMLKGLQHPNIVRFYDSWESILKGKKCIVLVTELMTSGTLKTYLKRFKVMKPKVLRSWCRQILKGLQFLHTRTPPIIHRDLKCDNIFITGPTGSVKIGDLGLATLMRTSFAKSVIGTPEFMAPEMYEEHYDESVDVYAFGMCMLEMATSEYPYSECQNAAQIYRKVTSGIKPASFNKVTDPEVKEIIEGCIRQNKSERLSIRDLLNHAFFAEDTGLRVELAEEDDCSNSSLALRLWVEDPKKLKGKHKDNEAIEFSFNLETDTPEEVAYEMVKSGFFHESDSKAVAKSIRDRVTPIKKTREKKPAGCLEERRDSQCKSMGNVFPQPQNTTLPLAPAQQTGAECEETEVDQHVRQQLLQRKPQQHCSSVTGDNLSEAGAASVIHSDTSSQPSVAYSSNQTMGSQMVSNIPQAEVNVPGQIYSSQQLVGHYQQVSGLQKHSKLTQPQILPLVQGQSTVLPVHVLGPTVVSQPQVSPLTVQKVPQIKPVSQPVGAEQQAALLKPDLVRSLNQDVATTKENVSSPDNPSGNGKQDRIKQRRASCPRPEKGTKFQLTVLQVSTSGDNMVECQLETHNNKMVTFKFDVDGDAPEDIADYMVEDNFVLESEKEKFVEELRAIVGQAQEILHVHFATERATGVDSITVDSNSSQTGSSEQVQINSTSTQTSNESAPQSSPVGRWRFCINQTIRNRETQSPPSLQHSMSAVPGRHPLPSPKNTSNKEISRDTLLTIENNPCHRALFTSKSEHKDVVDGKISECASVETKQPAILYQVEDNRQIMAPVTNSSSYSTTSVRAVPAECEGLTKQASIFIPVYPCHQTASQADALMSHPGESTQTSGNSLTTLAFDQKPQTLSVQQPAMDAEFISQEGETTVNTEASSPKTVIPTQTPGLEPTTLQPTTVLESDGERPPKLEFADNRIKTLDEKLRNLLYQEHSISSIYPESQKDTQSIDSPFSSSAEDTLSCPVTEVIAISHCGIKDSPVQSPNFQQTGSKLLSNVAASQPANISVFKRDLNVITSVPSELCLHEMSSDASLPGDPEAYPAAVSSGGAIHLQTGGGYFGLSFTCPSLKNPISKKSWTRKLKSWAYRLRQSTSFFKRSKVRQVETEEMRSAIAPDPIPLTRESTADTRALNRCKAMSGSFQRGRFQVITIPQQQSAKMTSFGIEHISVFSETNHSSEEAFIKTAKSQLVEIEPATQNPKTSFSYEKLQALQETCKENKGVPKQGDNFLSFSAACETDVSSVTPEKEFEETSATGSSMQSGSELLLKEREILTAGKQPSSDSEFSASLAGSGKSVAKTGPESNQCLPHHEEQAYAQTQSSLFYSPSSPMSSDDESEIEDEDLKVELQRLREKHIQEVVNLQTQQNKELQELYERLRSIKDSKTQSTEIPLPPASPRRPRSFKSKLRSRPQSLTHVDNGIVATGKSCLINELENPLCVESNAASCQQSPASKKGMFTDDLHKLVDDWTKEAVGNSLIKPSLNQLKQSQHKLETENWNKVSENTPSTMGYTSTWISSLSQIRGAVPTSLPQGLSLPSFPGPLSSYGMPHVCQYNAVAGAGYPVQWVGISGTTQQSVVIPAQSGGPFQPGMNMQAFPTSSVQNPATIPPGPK
# Description: as §1
# recombinant human WNK1 = target: T4, recombinant human WNK1 (Homo sapiens, UniProt Q9H4A3); test: Radiometric kinase profiling assay; assay type: biochemical; conditions: 70 μM ATP
# T4 construct: purchased Eurofins Discovery (KinaseProfiler, contractor)
# T4 sequence (Q9H4A3 whole entry): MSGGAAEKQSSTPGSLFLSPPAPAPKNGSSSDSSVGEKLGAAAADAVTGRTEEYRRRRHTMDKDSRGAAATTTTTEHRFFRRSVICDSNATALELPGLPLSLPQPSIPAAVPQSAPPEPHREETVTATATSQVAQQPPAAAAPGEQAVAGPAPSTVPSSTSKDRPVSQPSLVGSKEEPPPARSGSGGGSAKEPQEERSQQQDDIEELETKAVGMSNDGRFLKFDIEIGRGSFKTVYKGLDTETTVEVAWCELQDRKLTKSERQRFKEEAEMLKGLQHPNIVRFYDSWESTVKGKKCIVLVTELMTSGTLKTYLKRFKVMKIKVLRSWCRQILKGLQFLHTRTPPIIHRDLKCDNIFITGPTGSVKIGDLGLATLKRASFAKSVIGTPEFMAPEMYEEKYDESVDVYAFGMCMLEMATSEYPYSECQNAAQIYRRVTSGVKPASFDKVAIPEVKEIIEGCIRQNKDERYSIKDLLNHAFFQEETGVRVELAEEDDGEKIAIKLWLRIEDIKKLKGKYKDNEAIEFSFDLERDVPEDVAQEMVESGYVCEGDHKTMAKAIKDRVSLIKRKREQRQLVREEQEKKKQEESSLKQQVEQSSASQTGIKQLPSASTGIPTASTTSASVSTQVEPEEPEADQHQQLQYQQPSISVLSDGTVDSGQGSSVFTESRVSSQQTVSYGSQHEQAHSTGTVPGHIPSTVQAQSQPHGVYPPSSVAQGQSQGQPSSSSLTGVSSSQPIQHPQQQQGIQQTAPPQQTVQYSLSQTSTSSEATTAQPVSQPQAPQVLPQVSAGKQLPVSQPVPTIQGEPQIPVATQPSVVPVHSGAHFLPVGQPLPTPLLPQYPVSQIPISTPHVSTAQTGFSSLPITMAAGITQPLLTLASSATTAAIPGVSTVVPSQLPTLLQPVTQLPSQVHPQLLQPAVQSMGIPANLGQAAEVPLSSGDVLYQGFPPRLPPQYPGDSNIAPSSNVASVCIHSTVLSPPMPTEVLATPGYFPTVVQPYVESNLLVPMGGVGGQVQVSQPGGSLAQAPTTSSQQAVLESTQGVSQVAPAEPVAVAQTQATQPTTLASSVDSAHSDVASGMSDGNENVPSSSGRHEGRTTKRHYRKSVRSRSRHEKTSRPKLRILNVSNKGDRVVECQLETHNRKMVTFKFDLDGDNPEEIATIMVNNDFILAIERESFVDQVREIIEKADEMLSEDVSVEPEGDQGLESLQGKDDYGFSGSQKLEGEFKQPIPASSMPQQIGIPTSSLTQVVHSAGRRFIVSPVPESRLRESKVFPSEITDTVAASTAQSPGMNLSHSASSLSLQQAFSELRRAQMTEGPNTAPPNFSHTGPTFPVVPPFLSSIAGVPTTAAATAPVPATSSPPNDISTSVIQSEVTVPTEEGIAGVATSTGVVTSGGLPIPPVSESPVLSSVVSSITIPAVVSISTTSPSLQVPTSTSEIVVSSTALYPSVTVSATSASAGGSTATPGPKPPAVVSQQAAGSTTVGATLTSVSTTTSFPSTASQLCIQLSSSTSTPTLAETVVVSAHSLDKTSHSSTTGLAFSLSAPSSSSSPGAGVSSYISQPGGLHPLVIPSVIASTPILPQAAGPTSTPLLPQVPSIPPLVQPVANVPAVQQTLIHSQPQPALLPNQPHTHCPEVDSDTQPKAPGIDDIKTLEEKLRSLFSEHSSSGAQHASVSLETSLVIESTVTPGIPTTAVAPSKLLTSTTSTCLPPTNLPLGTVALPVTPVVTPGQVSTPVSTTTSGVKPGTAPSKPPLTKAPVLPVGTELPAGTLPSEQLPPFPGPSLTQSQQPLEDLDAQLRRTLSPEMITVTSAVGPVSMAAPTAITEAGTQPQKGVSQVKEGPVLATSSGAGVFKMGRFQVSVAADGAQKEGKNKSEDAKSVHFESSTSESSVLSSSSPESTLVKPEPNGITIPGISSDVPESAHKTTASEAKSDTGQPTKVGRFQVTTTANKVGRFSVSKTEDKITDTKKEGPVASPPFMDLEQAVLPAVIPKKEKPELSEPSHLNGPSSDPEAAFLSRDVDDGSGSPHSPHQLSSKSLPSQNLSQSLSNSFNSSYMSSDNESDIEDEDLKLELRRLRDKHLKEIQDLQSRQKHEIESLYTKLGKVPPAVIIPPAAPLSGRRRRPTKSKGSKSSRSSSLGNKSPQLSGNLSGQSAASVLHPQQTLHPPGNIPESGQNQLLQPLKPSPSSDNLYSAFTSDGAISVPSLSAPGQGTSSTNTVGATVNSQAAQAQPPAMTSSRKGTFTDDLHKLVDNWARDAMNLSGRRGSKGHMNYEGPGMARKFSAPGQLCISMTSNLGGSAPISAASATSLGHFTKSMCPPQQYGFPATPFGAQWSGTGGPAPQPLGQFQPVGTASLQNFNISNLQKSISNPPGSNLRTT
# Description: as §1
# synaptic GABAA receptors = test: Miniature inhibitory postsynaptic currents (mIPSCs) in hippocampal neurons; assay type: cell-based, rat
# [2] = test system: extrasynaptic GABAA receptors; test: GABAA receptor-mediated currents evoked by focal isoguvacine or RubiGABA uncaging; assay type: cell-based, rat
smiles,measurement,setting,value
"O=C1N=C(N2CCCCN2)S/C1=C\c1ccc(F)cc1O [CLP257, (5Z)-5-[(4-Fluoro-2-hydroxyphenyl)methylene]-2-(tetrahydro-1-(2H)-pyridazinyl)-4(5H)-thiazolone]",change of tyrosine phosphorylation of KCC2,"KCC2; 100 μM CLP257, 2 h",+19.00±15.00%
same,change of total KCC2 expression,"KCC2; 100 μM CLP257, 2 h",−6.92±11.80%
same,change of KCC2 phosphorylation at S940,"KCC2; 100 μM CLP257, 2 h",−19.70±34.40%
same,change of KCC2 phosphorylation at T906,"KCC2; 100 μM CLP257, 2 h",−12.70±10.90%
same,change of KCC2 phosphorylation at T1007,"KCC2; 100 μM CLP257, 2 h",−18.50±17.10%
same,inhibition of OSR1 kinase activity,recombinant human OSR1; CLP257 0.1-1000 μM,no direct inhibitory effect
same,inhibition of SPAK kinase activity,[1]; CLP257 0.1-1000 μM,no direct inhibitory effect
same,inhibition of WNK3 kinase activity,recombinant human WNK3; CLP257 0.1-1000 μM,no direct inhibitory effect
same,inhibition of WNK1 kinase activity,recombinant human WNK1; CLP257 0.1-1000 μM,no direct inhibitory effect
same,mIPSCs decay time constant,"synaptic GABAA receptors; 100 μM CLP257, before drug 12.36±0.75",12.53 ± 1.01 ms
same,mIPSCs amplitude,"synaptic GABAA receptors; 100 μM CLP257, before drug 42.32±3.40",43.77±2.86 pA
same,decay time constant of GABAA receptor-mediated currents,"[2]; 100 μM CLP257, RubiGABA 30 μM, control 124.39±9.12",218.22 ± 21.05 ms
same,amplitude of GABAA receptor-mediated currents,"[2]; 100 μM CLP257, RubiGABA 30 μM, control 164.70±4.56",162.04±6.62 pA
"CN1CCN(CCCN2c3ccccc3Sc3ccc(Cl)cc32)CC1 [PCPZ, prochlorperazine]",change of tyrosine phosphorylation of KCC2,"KCC2; 10 μM PCPZ, 2 h",+6.38±14.7%
same,change of total KCC2 expression,"KCC2; 10 μM PCPZ, 2 h",+12.1±32.8%
same,change of KCC2 phosphorylation at S940,"KCC2; 10 μM PCPZ, 2 h",+20.30±18.70%
same,change of KCC2 phosphorylation at T906,"KCC2; 10 μM PCPZ, 2 h",−10.20±10.40%
same,change of KCC2 phosphorylation at T1007,"KCC2; 10 μM PCPZ, 2 h",+26.40%±17.00
same,inhibition of OSR1 kinase activity,recombinant human OSR1; PCPZ 0.1-500 μM,no direct inhibitory effect
same,inhibition of SPAK kinase activity,[1]; PCPZ 0.1-500 μM,no direct inhibitory effect
same,inhibition of WNK3 kinase activity,recombinant human WNK3; PCPZ 0.1-500 μM,no direct inhibitory effect
same,inhibition of WNK1 kinase activity,recombinant human WNK1; PCPZ 0.1-500 μM,no direct inhibitory effect
same,mIPSCs decay time constant,"synaptic GABAA receptors; 10 μM PCPZ, before drug 10.66±0.80",10.17 ± 0.71 ms
same,mIPSCs amplitude,"synaptic GABAA receptors; 10 μM PCPZ, before drug 42.49±2.54",42.92±2.55 pA
same,decay time constant of GABAA receptor-mediated currents,"[2]; acute 10 μM PCPZ, isoguvacine 100 μM, control 127.66±10.23",130.81 ± 10.48 ms
same,amplitude of GABAA receptor-mediated currents,"[2]; acute 10 μM PCPZ, isoguvacine 100 μM, control 150.73±17.50",157.51±25.46 pA
